# pEC50: −log10 of the molar value.
# Experiments:
# CepR [1] = target: T1, CepR (Burkholderia cenocepacia, UniProt B4EMD0); experiment: CepR agonism in E. coli β-galactosidase reporter (Ec-reporter) JLD271 [pJN105-cepR + pSC11-cepI]; type: cell-based, B. cenocepacia
# T1 sequence (B4EMD0 1-239): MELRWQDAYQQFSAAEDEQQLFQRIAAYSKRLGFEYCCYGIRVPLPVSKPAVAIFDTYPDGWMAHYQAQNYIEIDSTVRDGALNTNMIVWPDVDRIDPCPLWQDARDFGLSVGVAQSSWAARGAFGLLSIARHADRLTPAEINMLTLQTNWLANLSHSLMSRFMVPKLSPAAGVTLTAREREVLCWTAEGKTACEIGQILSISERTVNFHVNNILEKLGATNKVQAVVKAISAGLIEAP
# Source text: (§1) We began our study by screening the AHL library for CepR modulators using an E. coli-based two plasmid reporter system (Ec-reporter)[38]–[40]. Certain members of the Bcc harbor additional QS systems that are either AHL-based (e.g., BviI/BviR in B. vietnamiensis)[41] or diffusible signal factor (DSF)-based (B. cenocepacia)[42], and at least one member of the Bcc has multiple receptors that respond to C8-AHL (e.g., CepR and CepR2 in B. cenocepacia)[43]. Thus, we reasoned that using a CepR reporter in a heterologous background could simplify our initial analyses. We modified our previously reported E. coli-based two plasmid β-galactosidase reporter system to develop a CepR Ec-reporter (see Methods). The first plasmid, pJN105-cepR, contains CepR from B. cenocepacia under the control of the L-arabinose inducible pBAD promoter. A second plasmid contains a transcriptional fusion of lacZ to the cepI promoter region. The two plasmids were co-transformed into a QS mutant E. coli strain (JLD271 ∆sdiA) that lacks its LuxR-type receptor, SdiA. Using this reporter system, if an exogenously -added compound is able to interact with CepR, this will affect the protein’s interaction with the cepI promoter region and alter β-galactosidase production. Enzyme production, and thereby CepR activity, is then measurable via the degradation of a colorimetric substrate for β-galactosidase. Using this new Ec-reporter, we observed robust activity of CepR in response to its native ligand C8-AHL, with an EC50 of 5 nM (Table 1).
# We used the CepR Ec-reporter to perform a primary agonism screen at a single compound concentration (100 μM, or its solubility limit, indicated in Table S1). Thirty-one compounds displaying ≥70% agonistic activity in CepR (relative to C8-AHL) were identified and subjected to dose-response analyses using the Ec-reporter (Table I; see Table S2 for complete screening data and Fig. S3 for dose-response curves).
# (§2) E. coli β-galactosidase reporter assays (derived from ref.[63]) and reagents used to obtain primary screening and dose-response data were performed as previously described[22],[60],[64], with the following modifications: E. coli JLD271 (∆sdiA) was co-transformed iteratively with pSC11-cepI and pJN105-cepR via electroporation. A single colony was used to start overnight cultures in LB medium + ampicillin (100 μg/mL) + gentamicin (15 μg/mL). A 1:10 dilution of overnight culture was grown in fresh medium to OD600 = 0.25. A sterile solution of L-arabinose in water (27 mM final concentration) was added to induce protein expression, after which cells were plated in 96-well plates containing varying concentrations of compound (200 μL total volume).
# (§3) Cells were grown for 4 h, OD600 was read, 50 μL aliquots from each well were permeabilized in 200 μL Z Buffer, and then 150 μL of this mixture used to measure the cleavage of 25 μL of 4 mg/mL CPRG in phosphate buffered saline (PBS) at 37 °C until positive control wells developed a deep red color (~30 min). For all agonism assays, synthetic compound (100 μM) was screened alongside and compared to the native ligand, C8-AHL (100 μM). For all primary and dose-response antagonism assays, the concentration of native ligand utilized was 10 nM (approximately equal to twice its EC50 value). […] At least 3 separate trials were performed using unique cultures on separate days.
# CepR [2] = target: T1, CepR; experiment: CepR antagonism in E. coli β-galactosidase reporter (Ec-reporter), competition against C8-AHL; type: cell-based, B. cenocepacia; settings: for CepR antagonism in words: Ec-reporter; for Inh% (100-Act%): Table S3, Ec-reporter
# Source text: as §1
# To identify antagonists of CepR, we screened the AHL library (at 100 μM) in competition against the native ligand C8-AHL (at approximately twice its EC50 value, 0.01 μM) in the Ec-reporter. […] The active compounds were subjected to dose-response analyses in the Ec-reporter to obtain IC50 values and assess their relative potencies (Table 2; see Table S3 for complete screening data and Fig. S3 for dose-response curves). One general trend that we noted at the outset was the majority of the antagonists had acyl tails of similar or shorter overall length than CepR’s native ligand, C8-AHL. From this set, the strongest antagonists could be divided into two classes: (i) “short alkyl tail” AHLs or analogs thereof, and (ii) phenylacetanoyl HLs (PHLs). The discovery that the latter compounds were CepR antagonists was perhaps not surprising, as we have found substituted PHLs to strongly antagonize the majority of the LuxR-type receptors studied in our laboratory to date[22],[24],[29],[45],[46].
# as §2, §3
# [3] = Table S2, Ec-reporter, screening conc. 100 μM
# [4] = screening conc. 100 μM, against 10 nM C8-AHL
structure (smiles),measurement,setting,value
O=C(Cc1ccc(F)cc1)N[C@H]1CCOC1=O [Compound C2],Act%,CepR [1]; [3],0.1%
same,CepR antagonism in words,CepR [2],inactive as antagonists
same,Inh% (100-Act%),CepR [2]; [4],4.0%
CC(C)(C)OC(=O)Nc1ccc(CC(=O)N[C@H]2CCOC2=O)cc1 [Compound C22],Act%,CepR [1]; [3],1.1%
same,Inh% (100-Act%),CepR [2]; [4],-70%
CCCCCCCCOc1ccc(C(=O)N[C@H]2CCOC2=O)cc1 [Compound Q9],Act%,CepR [1]; [3],62%
same,Inh% (100-Act%),CepR [2]; [4],-20%
O=C(N[C@H]1CCOC1=O)c1ccc(F)cc1 [Compound Q3],Act%,CepR [1]; [3],11%
same,Inh% (100-Act%),CepR [2]; [4],17%
O=C(Cc1cccc(F)c1)N[C@H]1CCOC1=O [Compound C3],Act%,CepR [1]; [3],0.2%
same,CepR antagonism in words,CepR [2],inactive as antagonists
same,Inh% (100-Act%),CepR [2]; [4],20%
"CCCCCCCCCC(=O)CC(=O)Nc1ccccc1 [3’O-C12-analine, reference compound]",Act%,CepR [1]; [3],52%
same,Inh% (100-Act%),CepR [2]; [4],16%
O=C(Cc1cccc([N+](=O)[O-])c1)Nc1cccc([N+](=O)[O-])c1 [Compound F55],Act%,CepR [1]; [3],25%
same,CepR antagonism in words,CepR [2],dramatic losses in activity
same,Inh% (100-Act%),CepR [2]; [4],13%
O=C(CCCc1ccccc1)N[C@@H]1CCOC1=O [Compound B3],Act%,CepR [1]; [3],-0.4%
same,Inh% (100-Act%),CepR [2]; [4],-30%
O=C(Cc1c[nH]c2ccccc12)N[C@H]1CCOC1=O [Compound B13],Act%,CepR [1]; [3],-1.1%
same,Inh% (100-Act%),CepR [2]; [4],22%
O=C(CCc1ccco1)N[C@H]1CCOC1=O [Compound D2],Act%,CepR [1]; [3],70%
same,Inh% (100-Act%),CepR [2]; [4],0.0%
O=C(N[C@H]1CCOC1=O)c1ccccc1Br [Compound Q1],Act%,CepR [1]; [3],5.8%
same,Inh% (100-Act%),CepR [2]; [4],-30%
CCCCCOc1ccc(C(=O)N[C@H]2CCOC2=O)cc1 [Compound R5],Act%,CepR [1]; [3],95%
same,Inh% (100-Act%),CepR [2]; [4],-10%
"CCCCCCCCCCCC(O)CC(=O)N[C@@H]1CCOC1=O (stereo partly shown) [3’OH-C14-AHL, reference compound]",Act%,CepR [1]; [3],33%
same,Inh% (100-Act%),CepR [2]; [4],-40%
Cc1cccc(CC(=O)N[C@H]2CCOC2=O)c1 [Compound E1],Act%,CepR [1]; [3],16%
same,Inh% (100-Act%),CepR [2]; [4],11%
"CCCCCCCCCC(=O)CC(=O)NC1CCCCC1=O (stereo not shown) [Control 15, reference compound]",Act%,CepR [1]; [3],5.2%
same,Inh% (100-Act%),CepR [2]; [4],29%
O=C(N[C@H]1CCOC1=O)c1ccc([N+](=O)[O-])cc1 [Compound Q7],Act%,CepR [1]; [3],10%
same,Inh% (100-Act%),CepR [2]; [4],28%
CCCCCC(=O)CC(=O)NC1CCSC1=O (stereo not shown) [3’O-C8-TL],Act%,CepR [1]; [3],61%
same,Inh% (100-Act%),CepR [2]; [4],-20%
O=C(Cc1ccc(-c2ccccc2)cc1)NC1CCCC1 [Compound F20],Act%,CepR [1]; [3],0.5%
same,Inh% (100-Act%),CepR [2]; [4],-10%
Cc1nc(-c2ccccc2)oc1CC(=O)N[C@H]1CCOC1=O [Compound D4],Act%,CepR [1]; [3],40%
same,Inh% (100-Act%),CepR [2]; [4],22%
O=C(Cc1ccc(O)cc1)N[C@H]1CCOC1=O [Compound C23],Act%,CepR [1]; [3],-0.5%
same,Inh% (100-Act%),CepR [2]; [4],-10%
O=C(Cc1c(F)c(F)c(F)c(F)c1F)N[C@H]1CCOC1=O [Compound C16],Act%,CepR [1]; [3],0.1%
same,Inh% (100-Act%),CepR [2]; [4],-30%
O=C(Cc1ccc(Cl)cc1)N[C@H]1CCOC1=O [Compound C5],Act%,CepR [1]; [3],0.1%
same,Inh% (100-Act%),CepR [2]; [4],25%
CCOc1ccc(C(=O)N[C@H]2CCOC2=O)cc1 [Compound R1],pEC50,"CepR [1]; Table S2, Ec-reporter",6.74
same,Act%,CepR [1]; [3],99%
same,Inh% (100-Act%),CepR [2]; [4],-20%
"CCCCCCCCCCCCCC(O)CC(=O)NC1CCOC1=O (stereo not shown) [3’OH-C16-AHL, reference compound]",Act%,CepR [1]; [3],8.0%
same,Inh% (100-Act%),CepR [2]; [4],-50%
CSc1ccc(CC(=O)N[C@H]2CCOC2=O)cc1 [Compound E6],Act%,CepR [1]; [3],3.7%
same,Inh% (100-Act%),CepR [2]; [4],-10%
"O=C(NCc1cc(Br)cc(Br)c1OC(=O)c1ccccc1[N+](=O)[O-])c1ccccc1Cl [TP-1P, reference compound]",Act%,CepR [1]; [3],54%
same,Inh% (100-Act%),CepR [2]; [4],0.0%
O=C(CC(O)Cc1cccc(I)c1)N[C@H]1CCOC1=O (stereo partly shown) [Compound H15],Act%,CepR [1]; [3],2.6%
same,Inh% (100-Act%),CepR [2]; [4],18%
Cc1cccc(OCC(=O)N[C@H]2CCOC2=O)c1 [Compound E16],Act%,CepR [1]; [3],11%
same,Inh% (100-Act%),CepR [2]; [4],21%
O=C(CCc1c[nH]c2ccccc12)N[C@H]1CCOC1=O [Compound B14],Act%,CepR [1]; [3],96%
same,Inh% (100-Act%),CepR [2]; [4],-40%
O=C(CC1CCCCC1)N[C@H]1CCOC1=O [Compound S7],Act%,CepR [1]; [3],7.6%
same,Inh% (100-Act%),CepR [2]; [4],20%
COc1ccc(CC(=O)NC2CCSC2=O)cc1 (stereo not shown) [Compound F12],Act%,CepR [1]; [3],2.4%
same,Inh% (100-Act%),CepR [2]; [4],-20%
"CCCCCCCCCC(=O)CC(=O)Nc1cccc(OC)c1 [Control 13, reference compound]",Act%,CepR [1]; [3],2.0%
same,Inh% (100-Act%),CepR [2]; [4],13%
O=C(COc1ccc(C(F)(F)F)cc1)N[C@H]1CCOC1=O [Compound E23],Act%,CepR [1]; [3],89%
same,Inh% (100-Act%),CepR [2]; [4],-10%
O=C(N[C@H]1CCOC1=O)c1ccc(Br)cc1 [Compound B6],Act%,CepR [1]; [3],56%
same,Inh% (100-Act%),CepR [2]; [4],18%
"CCCCCCCCCCCCCC(=O)CC(=O)NC1CCOC1=O (stereo not shown) [3’O-C16-AHL, reference compound]",Act%,CepR [1]; [3],8.3%
same,Inh% (100-Act%),CepR [2]; [4],-50%
O=C(Cc1ccccc1)NC1CCCC1 [Compound F16],Act%,CepR [1]; [3],7.4%
same,Inh% (100-Act%),CepR [2]; [4],-30%
[N-]=[N+]=Nc1ccc(CC(=O)N[C@H]2CCOC2=O)cc1 [Compound C17],Act%,CepR [1]; [3],1.0%
same,Inh% (100-Act%),CepR [2]; [4],26%
"CCCCCCCCCCCCCCCC(=O)N[C@H]1CCOC1=O [Compound C16-AHL, hexadecanoyl L-homoserine lactone, reference compound]",CepR agonism in words,CepR [1]; Ec-reporter,inactive
same,Maximal Activation (%),"CepR [1]; Ec-reporter, activity for 100 μM C8-AHL set to 100%, error ±10%",35%
same,Act%,"CepR [1]; Table S2, Ec-reporter, screening conc. 25 μM",35%
same,Inh% (100-Act%),CepR [2]; screening conc. 25 μM,-10%

# Source: article PMC6748986, “Potent modulation of the CepR quorum sensing receptor and virulence in a Burkholderia cepacia complex member using non-native lactone ligands” (Scientific Reports, 2019)
